{
  "source": "paper PMC7385619",
  "about": "“A triple action CDK4/6-PI3K-BET inhibitor with augmented cancer cell cytotoxicity” (Cell Discovery, 2020)",
  "assay_in_all_cases": "KINOMEscan assay (Eurofins DiscoverX)",
  "type_in_all_cases": "binding",
  "key": {"[1]": {"target": "T1, kinome (kinase panel) (Homo sapiens, UniProt Q14012)", "T1 construct": "purchased Eurofins DiscoverX", "conditions": "CAMK1; 1000 nM; read-out: Percent Control"}, "[2]": {"target": "T2, kinome (kinase panel) (Homo sapiens, UniProt P36888, D835Y)", "T2 construct": "purchased Eurofins DiscoverX", "conditions": "[…]; 1000 nM; read-out: Percent Control"}, "[3]": {"target": "T3, kinome (kinase panel) (Homo sapiens, UniProt P00519, Y253F)", "T3 construct": "purchased Eurofins DiscoverX", "conditions": "read-out: Percent Control"}, "[4]": {"target": "T4, kinome (kinase panel) (Homo sapiens, UniProt P36888, D835V)", "T4 construct": "purchased Eurofins DiscoverX", "conditions": "[…]; 1000 nM; read-out: Percent Control"}, "[5]": {"target": "T5, kinome (kinase panel) (Homo sapiens, UniProt P36888, K663Q)", "T5 construct": "purchased Eurofins DiscoverX", "conditions": "[…]; 1000 nM; read-out: Percent Control"}, "[6]": {"target": "T6, kinome (kinase panel) (Homo sapiens, UniProt Q13976)", "T6 construct": "purchased Eurofins DiscoverX", "conditions": "PRKG1; 1000 nM; read-out: Percent Control"}, "[7]": {"target": "T7, kinome (kinase panel) (Homo sapiens, UniProt Q9UKI8)", "T7 construct": "purchased Eurofins DiscoverX", "conditions": "TLK1; 1000 nM; read-out: Percent Control"}, "[8]": {"target": "T8, kinome (kinase panel) (Homo sapiens, UniProt Q9Y4K4)", "T8 construct": "purchased Eurofins DiscoverX", "conditions": "MAP4K5; 1000 nM; read-out: Percent Control"}, "[9]": {"target": "T9, kinome (kinase panel) (Homo sapiens, UniProt Q07912)", "T9 construct": "purchased Eurofins DiscoverX", "conditions": "TNK2; 1000 nM; read-out: Percent Control"}, "[10]": {"target": "T10, kinome (kinase panel) (Homo sapiens, UniProt Q9UQ88)", "T10 construct": "purchased Eurofins DiscoverX", "conditions": "CDC2L2; 1000 nM; read-out: Percent Control"}, "[11]": {"target": "T11, kinome (kinase panel) (Homo sapiens, UniProt O15264)", "T11 construct": "purchased Eurofins DiscoverX", "conditions": "p38-delta (Entrez MAPK13); 1000 nM; read-out: Percent Control"}, "[12]": {"target": "T12, kinome (kinase panel) (Homo sapiens, UniProt P29320)", "T12 construct": "purchased Eurofins DiscoverX", "T12 sequence (P29320 21-983)": "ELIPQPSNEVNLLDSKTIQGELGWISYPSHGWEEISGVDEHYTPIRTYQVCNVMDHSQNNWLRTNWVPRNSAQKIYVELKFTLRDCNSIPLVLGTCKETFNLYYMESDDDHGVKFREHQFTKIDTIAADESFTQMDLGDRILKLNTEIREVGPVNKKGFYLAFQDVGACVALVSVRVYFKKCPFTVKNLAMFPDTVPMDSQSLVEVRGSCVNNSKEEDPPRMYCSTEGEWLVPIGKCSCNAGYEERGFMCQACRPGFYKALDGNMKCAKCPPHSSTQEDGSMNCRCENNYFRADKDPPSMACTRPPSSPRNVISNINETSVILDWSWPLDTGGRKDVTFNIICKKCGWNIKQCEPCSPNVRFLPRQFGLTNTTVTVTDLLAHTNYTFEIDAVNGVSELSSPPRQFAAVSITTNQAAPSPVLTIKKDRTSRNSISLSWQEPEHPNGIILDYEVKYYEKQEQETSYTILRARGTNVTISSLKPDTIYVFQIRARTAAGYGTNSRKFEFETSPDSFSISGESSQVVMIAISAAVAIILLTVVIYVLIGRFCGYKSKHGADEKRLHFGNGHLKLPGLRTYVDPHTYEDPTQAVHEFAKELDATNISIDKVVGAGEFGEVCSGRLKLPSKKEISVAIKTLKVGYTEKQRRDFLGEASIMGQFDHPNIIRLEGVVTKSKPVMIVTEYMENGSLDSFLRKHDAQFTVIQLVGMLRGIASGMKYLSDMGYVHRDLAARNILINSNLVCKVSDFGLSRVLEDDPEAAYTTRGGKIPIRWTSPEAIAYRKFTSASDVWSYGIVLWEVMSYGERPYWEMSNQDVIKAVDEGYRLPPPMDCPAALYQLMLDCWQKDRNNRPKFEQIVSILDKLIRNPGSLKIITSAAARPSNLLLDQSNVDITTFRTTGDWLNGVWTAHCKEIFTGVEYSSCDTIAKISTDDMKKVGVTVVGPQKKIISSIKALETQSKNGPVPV", "conditions": "EPHA3; 1000 nM; read-out: Percent Control"}, "[13]": {"target": "T13, kinome (kinase panel) (Homo sapiens, UniProt Q13523)", "T13 construct": "purchased Eurofins DiscoverX", "conditions": "PRP4 (Entrez PRPF4B); 1000 nM; read-out: Percent Control"}, "[14]": {"target": "T14, kinome (kinase panel) (Homo sapiens, UniProt Q86YV6)", "T14 construct": "purchased Eurofins DiscoverX", "conditions": "MYLK4; 1000 nM; read-out: Percent Control"}, "[15]": {"target": "T15, kinome (kinase panel) (Homo sapiens, UniProt P00519)", "T15 construct": "purchased Eurofins DiscoverX", "conditions": "1000 nM, read-out: Percent Control"}, "[16]": {"target": "T16, kinome (kinase panel) (Homo sapiens, UniProt Q8TF76)", "T16 construct": "purchased Eurofins DiscoverX", "conditions": "HASPIN (Entrez GSG2); 1000 nM; read-out: Percent Control"}, "[17]": {"target": "T17, kinome (kinase panel) (Homo sapiens, UniProt Q6PHR2)", "T17 construct": "purchased Eurofins DiscoverX", "conditions": "ULK3; 1000 nM; read-out: Percent Control"}, "[18]": {"target": "T18, kinome (kinase panel) (Homo sapiens, UniProt Q9UBE8)", "T18 construct": "purchased Eurofins DiscoverX", "conditions": "NLK; 1000 nM; read-out: Percent Control"}, "[19]": {"target": "T19, kinome (kinase panel) (Homo sapiens, UniProt Q8IVW4)", "T19 construct": "purchased Eurofins DiscoverX", "conditions": "CDKL3; 1000 nM; read-out: Percent Control"}, "[20]": {"target": "T20, kinome (kinase panel) (Homo sapiens, UniProt Q99755)", "T20 construct": "purchased Eurofins DiscoverX", "conditions": "PIP5K1A; 1000 nM; read-out: Percent Control"}, "[21]": {"target": "T21, kinome (kinase panel) (Homo sapiens, UniProt Q9NRP7)", "T21 construct": "purchased Eurofins DiscoverX", "conditions": "STK36; 1000 nM; read-out: Percent Control"}, "[22]": {"target": "T22, kinome (kinase panel) (Homo sapiens, UniProt O60285)", "T22 construct": "purchased Eurofins DiscoverX", "conditions": "ARK5 (Entrez NUAK1); 1000 nM; read-out: Percent Control"}, "[23]": {"target": "T23, kinome (kinase panel) (Homo sapiens, UniProt Q6P2M8)", "T23 construct": "purchased Eurofins DiscoverX", "conditions": "CAMK1B (Entrez PNCK); 1000 nM; read-out: Percent Control"}, "[24]": {"target": "T24, kinome (kinase panel) (Homo sapiens, UniProt Q96PN8)", "T24 construct": "purchased Eurofins DiscoverX", "conditions": "TSSK3; 1000 nM; read-out: Percent Control"}, "[25]": {"target": "T25, kinome (kinase panel) (Homo sapiens, UniProt Q9HBY8)", "T25 construct": "purchased Eurofins DiscoverX", "conditions": "SGK2; 1000 nM; read-out: Percent Control"}, "[26]": {"target": "T26, kinome (kinase panel) (Homo sapiens, UniProt O75460)", "T26 construct": "purchased Eurofins DiscoverX", "T26 sequence (O75460 19-977)": "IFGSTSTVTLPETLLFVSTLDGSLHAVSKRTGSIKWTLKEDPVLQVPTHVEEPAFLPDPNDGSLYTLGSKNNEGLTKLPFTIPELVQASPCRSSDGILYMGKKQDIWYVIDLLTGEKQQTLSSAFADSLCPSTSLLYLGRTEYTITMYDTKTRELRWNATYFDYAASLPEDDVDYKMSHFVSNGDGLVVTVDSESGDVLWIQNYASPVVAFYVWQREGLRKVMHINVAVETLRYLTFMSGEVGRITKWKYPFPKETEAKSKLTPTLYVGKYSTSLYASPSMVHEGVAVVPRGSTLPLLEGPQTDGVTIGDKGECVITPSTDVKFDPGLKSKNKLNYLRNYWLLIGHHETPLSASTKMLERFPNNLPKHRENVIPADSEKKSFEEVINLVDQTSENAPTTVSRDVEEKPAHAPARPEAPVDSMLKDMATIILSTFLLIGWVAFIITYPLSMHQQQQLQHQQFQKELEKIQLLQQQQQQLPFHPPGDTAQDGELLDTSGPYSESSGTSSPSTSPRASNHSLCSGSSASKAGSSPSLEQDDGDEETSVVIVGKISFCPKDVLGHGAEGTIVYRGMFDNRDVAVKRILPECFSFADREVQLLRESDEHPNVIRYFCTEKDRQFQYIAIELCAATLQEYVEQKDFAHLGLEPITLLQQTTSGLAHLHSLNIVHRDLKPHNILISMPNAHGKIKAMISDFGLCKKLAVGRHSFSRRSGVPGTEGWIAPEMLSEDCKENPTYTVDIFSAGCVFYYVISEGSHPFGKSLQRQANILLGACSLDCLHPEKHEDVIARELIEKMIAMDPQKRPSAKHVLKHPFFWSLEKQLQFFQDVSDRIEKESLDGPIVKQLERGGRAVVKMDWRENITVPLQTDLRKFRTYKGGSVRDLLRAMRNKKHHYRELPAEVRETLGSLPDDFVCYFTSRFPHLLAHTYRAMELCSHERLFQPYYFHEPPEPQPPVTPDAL", "conditions": "ERN1; 1000 nM; read-out: Percent Control"}, "[27]": {"target": "T27, kinome (kinase panel) (Homo sapiens, UniProt Q8N568)", "T27 construct": "purchased Eurofins DiscoverX", "conditions": "DCAMKL2 (Entrez DCLK2); 1000 nM; read-out: Percent Control"}, "[28]": {"target": "T28, kinome (kinase panel) (Homo sapiens, UniProt P08581, M1250T)", "T28 construct": "purchased Eurofins DiscoverX", "T28 sequence (P08581 25-1390 M1250T)": "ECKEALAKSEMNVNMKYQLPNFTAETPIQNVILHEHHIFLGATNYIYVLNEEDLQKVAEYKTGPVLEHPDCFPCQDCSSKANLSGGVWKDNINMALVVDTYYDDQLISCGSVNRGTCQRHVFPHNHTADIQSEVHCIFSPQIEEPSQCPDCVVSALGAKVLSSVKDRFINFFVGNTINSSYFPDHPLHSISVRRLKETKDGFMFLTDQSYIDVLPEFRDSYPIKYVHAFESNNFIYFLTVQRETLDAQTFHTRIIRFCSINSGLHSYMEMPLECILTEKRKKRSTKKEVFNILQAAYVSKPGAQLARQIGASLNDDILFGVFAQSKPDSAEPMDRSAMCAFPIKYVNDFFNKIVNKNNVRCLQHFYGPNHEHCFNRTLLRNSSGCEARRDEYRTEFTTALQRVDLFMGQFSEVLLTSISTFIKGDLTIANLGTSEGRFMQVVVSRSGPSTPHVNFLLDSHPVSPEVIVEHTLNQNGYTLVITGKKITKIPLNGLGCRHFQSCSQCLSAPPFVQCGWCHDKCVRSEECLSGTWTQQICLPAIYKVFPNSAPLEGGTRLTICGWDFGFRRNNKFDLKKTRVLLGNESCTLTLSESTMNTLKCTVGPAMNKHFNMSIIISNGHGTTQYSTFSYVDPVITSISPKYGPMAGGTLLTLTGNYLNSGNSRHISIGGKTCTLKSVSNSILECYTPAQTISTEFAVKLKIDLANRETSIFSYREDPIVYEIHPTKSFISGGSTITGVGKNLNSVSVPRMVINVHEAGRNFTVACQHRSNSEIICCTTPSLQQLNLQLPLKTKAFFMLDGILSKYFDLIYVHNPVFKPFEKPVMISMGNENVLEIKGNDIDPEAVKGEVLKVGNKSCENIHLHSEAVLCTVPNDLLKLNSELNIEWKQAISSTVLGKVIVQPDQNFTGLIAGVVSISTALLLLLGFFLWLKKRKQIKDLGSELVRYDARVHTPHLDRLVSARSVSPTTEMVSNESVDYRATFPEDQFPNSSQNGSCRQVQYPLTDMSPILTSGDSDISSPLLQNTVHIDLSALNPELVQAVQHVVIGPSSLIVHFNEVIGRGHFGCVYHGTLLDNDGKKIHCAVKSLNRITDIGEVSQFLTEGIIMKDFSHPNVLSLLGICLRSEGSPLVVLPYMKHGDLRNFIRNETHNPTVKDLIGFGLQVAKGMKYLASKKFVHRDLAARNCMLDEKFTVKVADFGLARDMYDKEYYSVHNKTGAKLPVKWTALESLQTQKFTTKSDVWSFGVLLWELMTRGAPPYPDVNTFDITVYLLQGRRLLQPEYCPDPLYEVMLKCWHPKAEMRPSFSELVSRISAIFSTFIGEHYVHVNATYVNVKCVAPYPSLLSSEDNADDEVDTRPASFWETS", "conditions": "[…]; 1000 nM; read-out: Percent Control"}, "[29]": {"target": "T29, kinome (kinase panel) (Homo sapiens, UniProt P68400)", "T29 construct": "purchased Eurofins DiscoverX", "conditions": "CSNK2A1; 1000 nM; read-out: Percent Control"}, "[30]": {"target": "T30, kinome (kinase panel) (Homo sapiens, UniProt P43405)", "T30 construct": "purchased Eurofins DiscoverX", "conditions": "SYK; 1000 nM; read-out: Percent Control"}, "[31]": {"target": "T31, kinome (kinase panel) (Homo sapiens, UniProt Q8NE63)", "T31 construct": "purchased Eurofins DiscoverX", "conditions": "HIPK4; 1000 nM; read-out: Percent Control"}, "[32]": {"target": "T32, kinome (kinase panel) (Homo sapiens, UniProt Q8IW41)", "T32 construct": "purchased Eurofins DiscoverX", "conditions": "MAPKAPK5; 1000 nM; read-out: Percent Control"}, "[33]": {"target": "T33, kinome (kinase panel) (Homo sapiens, UniProt P00533, G719S)", "T33 construct": "purchased Eurofins DiscoverX", "T33 sequence (P00533 25-1210 G719S)": "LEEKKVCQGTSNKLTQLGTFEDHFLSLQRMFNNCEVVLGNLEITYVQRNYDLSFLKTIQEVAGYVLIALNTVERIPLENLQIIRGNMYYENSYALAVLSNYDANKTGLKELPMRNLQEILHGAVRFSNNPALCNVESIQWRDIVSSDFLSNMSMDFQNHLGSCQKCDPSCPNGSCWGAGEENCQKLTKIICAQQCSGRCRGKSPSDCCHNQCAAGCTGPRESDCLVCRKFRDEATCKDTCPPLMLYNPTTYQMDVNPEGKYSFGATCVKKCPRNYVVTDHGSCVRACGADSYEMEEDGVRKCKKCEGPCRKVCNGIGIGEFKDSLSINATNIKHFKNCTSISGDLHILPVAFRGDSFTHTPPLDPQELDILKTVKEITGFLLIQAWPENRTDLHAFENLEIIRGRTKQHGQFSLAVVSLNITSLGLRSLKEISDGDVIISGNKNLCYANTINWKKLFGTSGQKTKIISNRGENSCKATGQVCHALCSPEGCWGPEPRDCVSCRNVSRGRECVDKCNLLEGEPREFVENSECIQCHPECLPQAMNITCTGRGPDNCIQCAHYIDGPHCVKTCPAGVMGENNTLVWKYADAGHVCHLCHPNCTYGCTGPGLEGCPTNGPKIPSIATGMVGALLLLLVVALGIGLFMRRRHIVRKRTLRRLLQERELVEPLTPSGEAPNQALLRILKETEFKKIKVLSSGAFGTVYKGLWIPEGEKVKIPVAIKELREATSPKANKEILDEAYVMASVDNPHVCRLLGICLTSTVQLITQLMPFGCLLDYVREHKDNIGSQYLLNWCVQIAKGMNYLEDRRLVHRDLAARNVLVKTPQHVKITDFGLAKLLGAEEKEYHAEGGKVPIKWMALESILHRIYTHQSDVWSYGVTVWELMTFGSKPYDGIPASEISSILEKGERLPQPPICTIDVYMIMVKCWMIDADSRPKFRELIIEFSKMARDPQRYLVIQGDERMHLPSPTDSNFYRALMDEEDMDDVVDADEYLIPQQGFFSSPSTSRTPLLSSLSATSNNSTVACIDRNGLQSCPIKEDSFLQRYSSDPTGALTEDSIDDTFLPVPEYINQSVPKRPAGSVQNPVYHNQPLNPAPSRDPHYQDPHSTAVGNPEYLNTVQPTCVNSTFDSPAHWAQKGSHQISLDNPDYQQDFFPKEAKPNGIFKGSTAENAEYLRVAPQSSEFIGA", "conditions": "[…]; 1000 nM; read-out: Percent Control"}},
  "note": "Where two headings read alike, the source gives them in different places.",
  "data": [
    {"smiles": "CN(C)C(=O)c1cc2cnc(Nc3ccc(-c4csc5c(=O)cc(N6CCOCC6)oc45)cc3)nc2n1C1CCCC1", "note": "[SRX3177]", "values": [
      {"measurement": "remaining binding at 1 µM", "setting": "[1]", "result": 51, "unit": "%"},
      {"measurement": "remaining binding at 1 µM", "setting": "[2]", "result": 83, "unit": "%"},
      {"measurement": "remaining binding at 1 µM", "setting": "[3]", "result": 72, "unit": "%"},
      {"measurement": "remaining binding at 1 µM", "setting": "[4]", "result": 2.1, "unit": "%"},
      {"measurement": "remaining binding at 1 µM", "setting": "[5]", "result": 93, "unit": "%"},
      {"measurement": "remaining binding at 1 µM", "setting": "[6]", "result": 100, "unit": "%"},
      {"measurement": "remaining binding at 1 µM", "setting": "[7]", "result": 94, "unit": "%"},
      {"measurement": "remaining binding at 1 µM", "setting": "[8]", "result": 100, "unit": "%"},
      {"measurement": "remaining binding at 1 µM", "setting": "[9]", "result": 90, "unit": "%"},
      {"measurement": "remaining binding at 1 µM", "setting": "[10]", "result": 93, "unit": "%"},
      {"measurement": "remaining binding at 1 µM", "setting": "[11]", "result": 97, "unit": "%"},
      {"measurement": "remaining binding at 1 µM", "setting": "[12]", "result": 90, "unit": "%"},
      {"measurement": "remaining binding at 1 µM", "setting": "[13]", "result": 58, "unit": "%"},
      {"measurement": "remaining binding at 1 µM", "setting": "[14]", "result": 100, "unit": "%"},
      {"measurement": "remaining binding at 1 µM", "setting": "[15]; ABL1-nonphosphorylated", "result": 78, "unit": "%"},
      {"measurement": "remaining binding at 1 µM", "setting": "[15]; ABL1-phosphorylated", "result": 63, "unit": "%"},
      {"measurement": "remaining binding at 1 µM", "setting": "[16]", "result": 67, "unit": "%"},
      {"measurement": "remaining binding at 1 µM", "setting": "[17]", "result": 51, "unit": "%"},
      {"measurement": "remaining binding at 1 µM", "setting": "[18]", "result": 81, "unit": "%"},
      {"measurement": "remaining binding at 1 µM", "setting": "[19]", "result": 91, "unit": "%"},
      {"measurement": "remaining binding at 1 µM", "setting": "[20]", "result": 21, "unit": "%"},
      {"measurement": "remaining binding at 1 µM", "setting": "[21]", "result": 92, "unit": "%"},
      {"measurement": "remaining binding at 1 µM", "setting": "[22]", "result": 86, "unit": "%"},
      {"measurement": "remaining binding at 1 µM", "setting": "[23]", "result": 41, "unit": "%"},
      {"measurement": "remaining binding at 1 µM", "setting": "[24]", "result": 100, "unit": "%"},
      {"measurement": "remaining binding at 1 µM", "setting": "[25]", "result": 65, "unit": "%"},
      {"measurement": "remaining binding at 1 µM", "setting": "[26]", "result": 85, "unit": "%"},
      {"measurement": "remaining binding at 1 µM", "setting": "[27]", "result": 90, "unit": "%"},
      {"measurement": "remaining binding at 1 µM", "setting": "[28]", "result": 86, "unit": "%"},
      {"measurement": "remaining binding at 1 µM", "setting": "[29]", "result": 4.8, "unit": "%"},
      {"measurement": "remaining binding at 1 µM", "setting": "[30]", "result": 81, "unit": "%"},
      {"measurement": "remaining binding at 1 µM", "setting": "[31]", "result": 79, "unit": "%"},
      {"measurement": "remaining binding at 1 µM", "setting": "[32]", "result": 72, "unit": "%"},
      {"measurement": "remaining binding at 1 µM", "setting": "[33]", "result": 78, "unit": "%"}
    ]}
  ]
}
